Assay results as given in patent US20230085307A1, “PYRIDAZINONE COMPOUND AND HERBICIDE” (NISSAN CHEMICAL CORPORATION, priority 2019, published 2023).

Tests used:
Chinese sprangletop = test: Test Example 3: herbicidal effect by foliage application, Wagner pot (Table 18, symbol D); assay type: in vivo, chinese sprangletop (Leptochloa chinensis); conditions: amount of applied herbicide 320 g/ha
Outline: (§1)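 Plants were sown in alluvial soil held under 0.1–0.5 cm standing water and grown 14 days in a greenhouse at 25–30 °C. An emulsifiable formulation, water-diluted to the set dose, was then sprayed onto the foliage, and effects were scored three weeks later using previously defined criteria.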

blackgrass [1] = test: Test Example 5: herbicidal effect by foliage application, plastic box (Table 20, symbol J); assay type: in vivo, blackgrass (Alopecurus myosuroides); conditions: foliage application, 320 g/ha
Outline: (§2)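 Post-emergence foliar test in sterilized diluvial soil. Compound applied as water-diluted emulsion at a predetermined rate to 14-day-old plants; evaluation at three weeks.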

barnyard grass [2] = test: Test Example 5: herbicidal effect by foliage application, plastic box (Table 20, symbol H); assay type: in vivo, barnyard grass (Echinochloa crus-galli); conditions: foliage application, 320 g/ha
Outline: as §2

green foxtail [3] = test: Test Example 4: herbicidal effect by soil treatment (Table 19, symbol G); assay type: in vivo, green foxtail (Setaria viridis); conditions: amount of applied herbicide 320 g/ha
Outline: (§3)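 Scoring uses the grading scale of an earlier test, three weeks post-application. Treatment consists of spraying a diluted emulsion formulation across the surface of sterilized diluvial soil in which seeds are buried near 1.5 cm deep; boxes are kept in a greenhouse between 25° C. and 30° C.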

late watergrass = test: Test Example 1: herbicidal activity, application before weed generation under submerged conditions (Table 16, symbol A); assay type: in vivo, late watergrass (Echinochloa oryzicola)
Outline: (§4)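 Submerged Wagner pots (alluvial soil, 4 cm water) sown with weed seeds and planted with 2.5-leaf rice seedlings; emulsifiable concentrate diluted in water applied to water surface on sowing day. Held in greenhouse at 25-30 °C; injury scored 0-5 by herbicidal rate after three weeks.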

southern crabgrass [4] = test: Test Example 4: herbicidal effect by soil treatment (Table 19, symbol F); assay type: in vivo, southern crabgrass (Digitaria ciliaris); conditions: amount of applied herbicide 320 g/ha
Outline: as §3

lambsquarters [5] = test: Test Example 5: herbicidal effect by foliage application, plastic box (Table 20, symbol O); assay type: in vivo, lambsquarters (Chenopodium album); conditions: foliage application, 320 g/ha
Outline: as §2

Italian ryegrass [6] = test: Test Example 5: herbicidal effect by foliage application, plastic box (Table 20, symbol K); assay type: in vivo, Italian ryegrass (Lolium multiflorum); conditions: foliage application, 320 g/ha
Outline: as §2

chickweed [7] = test: Test Example 4: herbicidal effect by soil treatment (Table 19, symbol P); assay type: in vivo, common chickweed (Stellaria media); conditions: amount of applied herbicide 320 g/ha
Outline: as §3

wild oat [8] = test: Test Example 5: herbicidal effect by foliage application, plastic box (Table 20, symbol I); assay type: in vivo, wild oat (Avena fatua); conditions: foliage application, 320 g/ha
Outline: as §2

velvetleaf [9] = test: Test Example 5: herbicidal effect by foliage application, plastic box (Table 20, symbol M); assay type: in vivo, velvetleaf (Abutilon theophrasti); conditions: foliage application, 320 g/ha
Outline: as §2

lambsquarters [10] = test: Test Example 4: herbicidal effect by soil treatment (Table 19, symbol O); assay type: in vivo, lambsquarters (Chenopodium album); conditions: amount of applied herbicide 320 g/ha
Outline: as §3

Italian ryegrass [11] = test: Test Example 4: herbicidal effect by soil treatment (Table 19, symbol K); assay type: in vivo, Italian ryegrass (Lolium multiflorum); conditions: amount of applied herbicide 320 g/ha
Outline: as §3

redroot pigweed = test: Test Example 4: herbicidal effect by soil treatment (Table 19, symbol N); assay type: in vivo, redroot pigweed (Amaranthus retroflexus); conditions: amount of applied herbicide 320 g/ha
Outline: as §3

rice flat sedge = test: Test Example 3: herbicidal effect by foliage application, Wagner pot (Table 18, symbol E); assay type: in vivo, rice flat sedge (Cyperus iria); conditions: amount of applied herbicide 320 g/ha
Outline: as §1

chickweed [12] = test: Test Example 5: herbicidal effect by foliage application, plastic box (Table 20, symbol P); assay type: in vivo, common chickweed (Stellaria media); conditions: foliage application, 320 g/ha, evaluated three weeks after application
Outline: as §2

Japanese bulrush = test: Test Example 1: herbicidal activity, application before weed generation under submerged conditions (Table 16, symbol B); assay type: in vivo, Japanese bulrush (Schoenoplectus juncoides)
Outline: as §4

windgrass [13] = test: Test Example 4: herbicidal effect by soil treatment (Table 19, symbol L); assay type: in vivo, windgrass (Apera spica-venti); conditions: amount of applied herbicide 320 g/ha
Outline: as §3

persian speedwell [14] = test: Test Example 4: herbicidal effect by soil treatment (Table 19, symbol R); assay type: in vivo, Persian speedwell (Veronica persica); conditions: amount of applied herbicide 320 g/ha
Outline: as §3

windgrass [15] = test: Test Example 5: herbicidal effect by foliage application, plastic box (Table 20, symbol L); assay type: in vivo, windgrass (Apera spica-venti); conditions: foliage application, 320 g/ha
Outline: as §2

oval-leafed pondweed = test: Test Example 1: herbicidal activity, application before weed generation under submerged conditions (Table 16, symbol C); assay type: in vivo, oval-leafed pondweed (Monochoria vaginalis)
Outline: as §4

velvetleaf [16] = test: Test Example 4: herbicidal effect by soil treatment (Table 19, symbol M); assay type: in vivo, velvetleaf (Abutilon theophrasti); conditions: amount of applied herbicide 320 g/ha
Outline: as §3

green foxtail [17] = test: Test Example 5: herbicidal effect by foliage application, plastic box (Table 20, symbol G); assay type: in vivo, green foxtail (Setaria viridis); conditions: foliage application, 320 g/ha
Outline: as §2

persian speedwell [18] = test: Test Example 5: herbicidal effect by foliage application, plastic box (Table 20, symbol R); assay type: in vivo, Persian speedwell (Veronica persica); conditions: foliage application, 320 g/ha
Outline: as §2

barnyard grass [19] = test: Test Example 4: herbicidal effect by soil treatment (Table 19, symbol H); assay type: in vivo, barnyard grass (Echinochloa crus-galli); conditions: amount of applied herbicide 320 g/ha
Outline: as §3

barnyard grass [20] = test: Test Example 3: herbicidal effect by foliage application, Wagner pot (Table 18, symbol H); assay type: in vivo, barnyard grass (Echinochloa crus-galli); conditions: amount of applied herbicide 320 g/ha
Outline: as §1

wild oat [21] = test: Test Example 4: herbicidal effect by soil treatment (Table 19, symbol I); assay type: in vivo, wild oat (Avena fatua); conditions: amount of applied herbicide 320 g/ha
Outline: as §3

southern crabgrass [22] = test: Test Example 5: herbicidal effect by foliage application, plastic box (Table 20, symbol F); assay type: in vivo, southern crabgrass (Digitaria ciliaris); conditions: foliage application, 320 g/ha
Outline: as §2

blackgrass [23] = test: Test Example 4: herbicidal effect by soil treatment (Table 19, symbol J); assay type: in vivo, blackgrass (Alopecurus myosuroides); conditions: amount of applied herbicide 320 g/ha
Outline: as §3

[24] = evaluated three weeks after application
[25] = amount of applied herbicide 320 g/ha

CCCOc1ccc2sc(-c3ccc(F)cc3OC)c(-c3c(O)c(C)nn(C)c3=O)c2c1 [2-173]
herbicidal effect on D: Chinese sprangletop (Chinese sprangletop): 2 (Herbicidal rate of 20% or more and less than 40%) | herbicidal effect on J: blackgrass (criteria 0-5) (blackgrass [1]; [24]): 4 (Herbicidal rate of 70% or more and less than 90%) | herbicidal effect on H: barnyard grass (criteria 0-5) (barnyard grass [2]; [24]): 0 (Herbicidal rate of 5% or less (almost no effect)) | G: green foxtail, herbicidal effect rating (green foxtail [3]): 0 (Herbicidal rate of 5% or less (almost no effect)) | Herbicidal effect on A: late watergrass (grade 0-5) (late watergrass; 320 g/ha applied herbicide): 2 (Herbicidal rate of 20% or more and less than 40%) | F: southern crabgrass, herbicidal effect rating (southern crabgrass [4]): 0 (Herbicidal rate of 5% or less (almost no effect)) | herbicidal effect on O: lambsquarters (criteria 0-5) (lambsquarters [5]; [24]): 1 (Herbicidal rate of 5% or more and less than 20%) | herbicidal effect on K: Italian ryegrass (criteria 0-5) (Italian ryegrass [6]; [24]): 0 (Herbicidal rate of 5% or less (almost no effect)) | P: chickweed, herbicidal effect rating (chickweed [7]): 3 (Herbicidal rate of 40% or more and less than 70%) | herbicidal effect on I: wild oat (criteria 0-5) (wild oat [8]; [24]): 0 (Herbicidal rate of 5% or less (almost no effect)) | herbicidal effect on M: velvetleaf (criteria 0-5) (velvetleaf [9]; [24]): 0 (Herbicidal rate of 5% or less (almost no effect)) | O: lambsquarters, herbicidal effect rating (lambsquarters [10]): 0 (Herbicidal rate of 5% or less (almost no effect)) | K: Italian ryegrass, herbicidal effect rating (Italian ryegrass [11]): 0 (Herbicidal rate of 5% or less (almost no effect)) | N: redroot pigweed, herbicidal effect rating (redroot pigweed): 0 (Herbicidal rate of 5% or less (almost no effect)) | herbicidal effect on E: rice flat sedge (rice flat sedge): 2 (Herbicidal rate of 20% or more and less than 40%) | herbicidal effect on P: chickweed (criteria 0-5) (chickweed [12]): 5 (Herbicidal rate of 90% or more (almost completely withered)) | Herbicidal effect on B: Japanese bulrush (grade 0-5) (Japanese bulrush; 320 g/ha applied herbicide): 0 (Herbicidal rate of 5% or less (almost no effect)) | L: windgrass, herbicidal effect rating (windgrass [13]): 0 (Herbicidal rate of 5% or less (almost no effect)) | R: persian speedwell, herbicidal effect rating (persian speedwell [14]): 0 (Herbicidal rate of 5% or less (almost no effect)) | herbicidal effect on L: windgrass (criteria 0-5) (windgrass [15]; [24]): 4 (Herbicidal rate of 70% or more and less than 90%) | Herbicidal effect on C: oval-leafed pondweed (grade 0-5) (oval-leafed pondweed; 320 g/ha applied herbicide): 0 (Herbicidal rate of 5% or less (almost no effect)) | M: velvetleaf, herbicidal effect rating (velvetleaf [16]): 0 (Herbicidal rate of 5% or less (almost no effect)) | herbicidal effect on G: green foxtail (criteria 0-5) (green foxtail [17]; [24]): 0 (Herbicidal rate of 5% or less (almost no effect)) | herbicidal effect on R: persian speedwell (criteria 0-5) (persian speedwell [18]; [24]): 5 (Herbicidal rate of 90% or more (almost completely withered)) | H: barnyard grass, herbicidal effect rating (barnyard grass [19]): 0 (Herbicidal rate of 5% or less (almost no effect)) | herbicidal effect on H: barnyard grass (barnyard grass [20]): 3 (Herbicidal rate of 40% or more and less than 70%) | I: wild oat, herbicidal effect rating (wild oat [21]): 0 (Herbicidal rate of 5% or less (almost no effect)) | herbicidal effect on F: southern crabgrass (criteria 0-5) (southern crabgrass [22]; [24]): 0 (Herbicidal rate of 5% or less (almost no effect)) | J: blackgrass, herbicidal effect rating (blackgrass [23]): 0 (Herbicidal rate of 5% or less (almost no effect))

COc1ccccc1-c1oc2ccc(F)cc2c1-c1c(O)c(C)nn(C)c1=O [9-019]
Herbicidal effect on D (Chinese sprangletop), foliage application (Chinese sprangletop): 4 (Herbicidal rate of 70% or more and less than 90%) | herbicidal effect on blackgrass (J) (blackgrass [1]; three weeks after application): 0 (Herbicidal rate of 5% or less (almost no effect)) | herbicidal effect on barnyard grass (H) (barnyard grass [2]; three weeks after application): 0 (Herbicidal rate of 5% or less (almost no effect)) | G: green foxtail, herbicidal effect grade (green foxtail [3]): 0 (Herbicidal rate of 5% or less (almost no effect)) | Herbicidal effect, A: late watergrass (late watergrass; [25]): 3 (Herbicidal rate of 40% or more and less than 70%) | F: southern crabgrass, herbicidal effect grade (southern crabgrass [4]): 0 (Herbicidal rate of 5% or less (almost no effect)) | herbicidal effect on lambsquarters (O) (lambsquarters [5]; three weeks after application): 0 (Herbicidal rate of 5% or less (almost no effect)) | herbicidal effect on Italian ryegrass (K) (Italian ryegrass [6]; three weeks after application): 0 (Herbicidal rate of 5% or less (almost no effect)) | P: chickweed, herbicidal effect grade (chickweed [7]): 0 (Herbicidal rate of 5% or less (almost no effect)) | herbicidal effect on wild oat (I) (wild oat [8]; three weeks after application): 0 (Herbicidal rate of 5% or less (almost no effect)) | herbicidal effect on velvetleaf (M) (velvetleaf [9]; three weeks after application): 0 (Herbicidal rate of 5% or less (almost no effect)) | O: lambsquarters, herbicidal effect grade (lambsquarters [10]): 1 (Herbicidal rate of 5% or more and less than 20%) | K: Italian ryegrass, herbicidal effect grade (Italian ryegrass [11]): 1 (Herbicidal rate of 5% or more and less than 20%) | N: redroot pigweed, herbicidal effect grade (redroot pigweed): 2 (Herbicidal rate of 20% or more and less than 40%) | Herbicidal effect on E (rice flat sedge), foliage application (rice flat sedge): 4 (Herbicidal rate of 70% or more and less than 90%) | Herbicidal effect, B: Japanese bulrush (Japanese bulrush; [25]): 0 (Herbicidal rate of 5% or less (almost no effect)) | L: windgrass, herbicidal effect grade (windgrass [13]): 0 (Herbicidal rate of 5% or less (almost no effect)) | R: persian speedwell, herbicidal effect grade (persian speedwell [14]): 0 (Herbicidal rate of 5% or less (almost no effect)) | herbicidal effect on windgrass (L) (windgrass [15]; three weeks after application): 0 (Herbicidal rate of 5% or less (almost no effect)) | Herbicidal effect, C: oval-leafed pondweed (oval-leafed pondweed; [25]): 0 (Herbicidal rate of 5% or less (almost no effect)) | M: velvetleaf, herbicidal effect grade (velvetleaf [16]): 0 (Herbicidal rate of 5% or less (almost no effect)) | herbicidal effect on green foxtail (G) (green foxtail [17]; three weeks after application): 0 (Herbicidal rate of 5% or less (almost no effect)) | herbicidal effect on persian speedwell (R) (persian speedwell [18]; three weeks after application): 4 (Herbicidal rate of 70% or more and less than 90%) | H: barnyard grass, herbicidal effect grade (barnyard grass [19]): 0 (Herbicidal rate of 5% or less (almost no effect)) | Herbicidal effect on H (barnyard grass), foliage application (barnyard grass [20]): 4 (Herbicidal rate of 70% or more and less than 90%) | I: wild oat, herbicidal effect grade (wild oat [21]): 0 (Herbicidal rate of 5% or less (almost no effect)) | herbicidal effect on southern crabgrass (F) (southern crabgrass [22]; three weeks after application): 0 (Herbicidal rate of 5% or less (almost no effect)) | J: blackgrass, herbicidal effect grade (blackgrass [23]): 0 (Herbicidal rate of 5% or less (almost no effect))
